Measurements as given in patent US20150087613A1, “Inhibition of Opioid Antinociceptive Tolerance and Withdrawal in Nociceptive Pain Therapy” (Saint Louis University, priority 2013, published 2015).
Like-named read-outs stand apart in the source and are kept apart here.

Columns and labels:
hA3AR = biological target: T1, hA3AR (Homo sapiens, UniProt P0DMS8); experiment: cAMP assay, inhibition of forskolin-stimulated cAMP in hA3AR-transfected CHO cells; format: cell-based; conditions: for Emax at 10 µM: CHO, read-out: % efficacy, A3
T1 construct: expressed in transfected cells
T1 sequence (P0DMS8 1-318): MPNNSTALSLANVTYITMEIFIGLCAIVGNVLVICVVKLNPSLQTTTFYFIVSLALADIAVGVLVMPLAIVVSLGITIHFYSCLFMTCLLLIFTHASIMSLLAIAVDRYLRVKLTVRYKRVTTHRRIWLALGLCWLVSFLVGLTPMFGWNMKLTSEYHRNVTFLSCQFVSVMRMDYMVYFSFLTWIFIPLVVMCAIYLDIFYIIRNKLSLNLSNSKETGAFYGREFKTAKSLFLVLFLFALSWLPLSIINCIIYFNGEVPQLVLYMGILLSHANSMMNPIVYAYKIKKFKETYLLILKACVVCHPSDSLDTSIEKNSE

A1AR [1] = biological target: T2, A1AR (Homo sapiens, UniProt P30542); conditions: species h; inhibition of binding at 10 μM; tested in ref 26; cited from earlier work
T2 construct: expressed in transfected cells
T2 sequence (P30542 1-326): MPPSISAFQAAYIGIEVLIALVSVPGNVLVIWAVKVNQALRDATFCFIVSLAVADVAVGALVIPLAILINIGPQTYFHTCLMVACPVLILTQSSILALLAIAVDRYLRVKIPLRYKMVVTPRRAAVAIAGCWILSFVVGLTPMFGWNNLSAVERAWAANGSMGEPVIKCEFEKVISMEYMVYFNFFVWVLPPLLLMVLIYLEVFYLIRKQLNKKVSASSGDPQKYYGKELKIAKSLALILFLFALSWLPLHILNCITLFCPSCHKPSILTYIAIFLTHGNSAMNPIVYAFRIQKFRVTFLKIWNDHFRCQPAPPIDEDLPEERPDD

A2AAR [2] = biological target: T3, A2AAR (Homo sapiens, UniProt P29274); conditions: species h, tested in ref 26, cited from earlier work; for % inhibition A2A: inhibition of binding at 10 μM; for Ki: agonist radioligand 41, read-out: affinity (KV nM) A2A
T3 construct: expressed in transfected cells

A3AR [3] = biological target: T4, A3AR (Homo sapiens, UniProt P0DMS8); conditions: species h; agonist radioligand 42; tested in ref 26; read-out: affinity (KV nM) A3; cited from earlier work
T4 construct: expressed in transfected cells
T4 sequence (P0DMS8 1-318): T1 sequence (P0DMS8 1-318)

A1AR [4] = biological target: T2, A1AR; experiment: Radioligand binding, membranes of CHO cells stably expressing hA1AR; conditions: for inhibition at 10 µM: read-out: % inhibition A1
A2AAR [5] = biological target: T3, A2AAR; experiment: Radioligand binding, membranes of HEK293 cells stably expressing hA2AAR; conditions: read-out: % inhibition A2A
A3AR [6] = biological target: T4, A3AR; experiment: Radioligand binding, membranes of CHO cells stably expressing hA3AR; conditions: species h; agonist radioligand 42; n 3-4; read-out: affinity (KV nM) A3
A1AR [7] = biological target: T5, A1AR (Mus musculus, UniProt Q60612); experiment: Radioligand binding, membranes of HEK293 cells stably expressing mA1AR; conditions: for inhibition at 10 µM: read-out: % inhibition A1; for Ki: species m, n 3-4, read-out: affinity (KV nM) A1
T5 construct: expressed in transfected cells
T5 sequence (Q60612 1-326): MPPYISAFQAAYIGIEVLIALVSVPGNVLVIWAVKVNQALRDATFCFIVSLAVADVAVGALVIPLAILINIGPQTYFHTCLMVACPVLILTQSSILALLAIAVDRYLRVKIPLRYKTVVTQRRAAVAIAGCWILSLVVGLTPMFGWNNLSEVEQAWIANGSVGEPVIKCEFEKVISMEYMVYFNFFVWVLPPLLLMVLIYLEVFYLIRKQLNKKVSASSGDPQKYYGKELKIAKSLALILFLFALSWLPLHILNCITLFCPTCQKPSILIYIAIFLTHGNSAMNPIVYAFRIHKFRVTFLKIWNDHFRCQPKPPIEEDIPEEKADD

A2AAR [8] = biological target: T6, A2AAR (Mus musculus, UniProt Q60613); experiment: Radioligand binding, membranes of HEK293 cells stably expressing mA2AAR; conditions: read-out: % inhibition A2A
T6 construct: expressed in transfected cells

A3AR [9] = biological target: T7, A3AR (Mus musculus, UniProt Q61618); experiment: Radioligand binding, membranes of HEK293 cells stably expressing mA3AR; conditions: species m; n 3-4; read-out: affinity (KV nM) A3
T7 construct: expressed in transfected cells
T7 sequence (Q61618 1-319): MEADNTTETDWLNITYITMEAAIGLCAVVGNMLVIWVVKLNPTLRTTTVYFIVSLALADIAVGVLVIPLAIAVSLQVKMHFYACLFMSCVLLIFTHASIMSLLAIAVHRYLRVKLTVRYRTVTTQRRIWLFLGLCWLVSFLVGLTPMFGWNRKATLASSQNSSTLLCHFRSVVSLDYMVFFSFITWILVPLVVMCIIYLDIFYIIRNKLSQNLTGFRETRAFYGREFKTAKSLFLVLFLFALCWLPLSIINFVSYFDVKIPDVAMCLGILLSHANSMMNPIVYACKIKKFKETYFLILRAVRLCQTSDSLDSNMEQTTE

Male Sprague Dawley rats [10] = experiment: Rat morphine antinociceptive tolerance study (osmotic minipump, tail flick test); format: in vivo
Description: Minipumps were filled according to manufacturer's specifications. The use of the osmotic pump ensures a continuous subcutaneously delivery of morphine avoiding intermittent periods of withdrawal. […] The integrity of the pump delivery system was reexamined at the end of each experiment when the spinal cords are harvested.
(§1) Test substances or vehicle were given on day 0 through 6 after completion of the behavioral tests.

Male Sprague Dawley rats [11] = experiment: Acute antinociceptive interaction with acute morphine (tail flick); format: in vivo, rat
Description: as §1

mA3AR = biological target: T8, mA3AR (Mus musculus, UniProt Q61618); experiment: cAMP assay, inhibition of forskolin-stimulated cAMP in mA3AR-transfected HEK cells; format: cell-based; conditions: HEK293; read-out: % efficacy, A3
T8 construct: expressed in transfected cells
T8 sequence (Q61618 1-319): T7 sequence (Q61618 1-319)

Male Balb/c mice = experiment: Naloxone-precipitated withdrawal in morphine dependent mice; format: in vivo, mouse; conditions: IB-MECA 0.1 mg/kg with three day morphine regimen
Procedure: Male Balb/c mice (19-26 g) were purchased from University of Adelaide Laboratory Animal Services (Waite Campus, Adelaidem South Australia) and housed 6 per individually ventilated cage (IVC) and maintained in controlled environment (12 h light/dark cycle) with food and water available ad libitum.
A group of control mice (n=7 per strain) received an equal number of saline injections over 3 days.
EtOH was maintained at 0.02% final drug preparation. Vehicle was 0.02% EtOH in normal saline.
Immediately after the naloxone injection, animals were placed into individual Plexiglas observation cylinders (25 h×11 w cm) (Nalgene, Scoresby, VIC, Australia). Withdrawal jumping response symptoms were recorded and the frequency of jumps for each mouse was summed over 30 min. Other characteristic opioid withdrawal behaviors were also recorded such as front paw shakes and hunched/prayer postures. All testing was conducted blind to group assignment.

[12] = Solubility in EtOH on preparing the dosing solution; conditions: 5 mg dissolved in 5 ml EtOH

T3 sequence (P29274 whole entry): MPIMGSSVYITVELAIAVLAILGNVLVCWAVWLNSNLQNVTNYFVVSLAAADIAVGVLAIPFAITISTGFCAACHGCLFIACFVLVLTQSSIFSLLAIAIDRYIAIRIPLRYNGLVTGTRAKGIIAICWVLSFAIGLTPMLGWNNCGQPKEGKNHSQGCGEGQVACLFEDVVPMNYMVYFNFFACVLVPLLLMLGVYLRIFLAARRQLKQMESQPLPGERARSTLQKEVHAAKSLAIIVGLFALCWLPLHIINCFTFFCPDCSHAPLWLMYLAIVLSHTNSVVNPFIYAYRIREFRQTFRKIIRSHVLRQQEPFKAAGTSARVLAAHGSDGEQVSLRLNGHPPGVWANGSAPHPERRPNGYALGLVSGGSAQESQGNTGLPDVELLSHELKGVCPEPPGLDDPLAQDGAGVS
T6 sequence (Q60613 whole entry): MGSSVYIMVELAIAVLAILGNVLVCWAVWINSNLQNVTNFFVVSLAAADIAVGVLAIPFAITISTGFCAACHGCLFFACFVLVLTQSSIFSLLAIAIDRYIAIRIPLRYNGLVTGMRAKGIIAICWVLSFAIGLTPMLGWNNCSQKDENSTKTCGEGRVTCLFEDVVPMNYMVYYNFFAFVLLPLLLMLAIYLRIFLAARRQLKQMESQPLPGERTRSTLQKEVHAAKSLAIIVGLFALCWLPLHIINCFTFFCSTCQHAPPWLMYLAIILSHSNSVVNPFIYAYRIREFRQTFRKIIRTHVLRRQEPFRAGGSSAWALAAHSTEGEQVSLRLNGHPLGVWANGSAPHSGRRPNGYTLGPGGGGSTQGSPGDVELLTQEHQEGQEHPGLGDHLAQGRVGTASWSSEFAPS

| SMILES | Emax at 10 µM (hA3AR) | % inhibition A1 (A1AR [1]) | % inhibition A2A (A2AAR [2]) | inhibition at 10 µM (A1AR [7]) | inhibition at 10 µM (A2AAR [8]) | Ki (A3AR [9]) | other results |
| --- | --- | --- | --- | --- | --- | --- | --- |
| OC1C(O)C(n2cnc3c(NCC(c4ccccc4)c4ccccc4)nc(C#Cc4ccccc4Cl)nc32)C2CC12 (stereo not shown) [Compound 15] | 2.6 ± 1.3% | (26% ± 4%) | (22% ± 2%) | – | – | – | Ki (A3AR [3]): 140 ± 30 nM |
| O=S(=O)(O)c1ccc(CCNc2nc(C#Cc3ccccc3)nc3c2ncn3[C@H]2[C@H](O)[C@H](O)[C@@H]3C[C@@H]32)cc1 [Compound 16] | 7.2% | – | – | 18% | 1% | 3920 ± 1190 nM | inhibition at 10 µM (A1AR [4]): 10%; inhibition at 10 µM (A2AAR [5]): 15%; Ki (A3AR [6]): 30.2 ± 4.3 nM |
| CN1CC[C@]23c4c5ccc(O)c4O[C@H]2[C@@H](O)C=C[C@H]3[C@H]1C5 [morphine] | – | – | – | – | – | – | analgesia at 2 hr following minipump implant (Male Sprague Dawley rats [10]; morphine 75 μg/μl/h s.c. by osmotic minipump): approximately 100 % analgesia; development of antinociceptive tolerance on chronic morphine infusion (Male Sprague Dawley rats [10]; s.c. infusion over 7 days (Veh-Mor, n=2) vs saline infusion, P<0.001, day 3 and 6): led to the development of antinociceptive tolerance; antinociception after acute morphine alone (Male Sprague Dawley rats [11]; morphine 3 mg/kg i.p., at 30 min): 40±2 % antinociception |
| CNC(=O)[C@@]12C[C@@H]1[C@@H](n1cnc3c(NCc4cccc(Cl)c4)nc(C#Cc4ccc(S(=O)(=O)O)cc4)nc31)[C@H](O)[C@@H]2O [Compound 6] | 96.8 ± 5.7% | – | – | – | 14% | 9.68 ± 0.15 nM | Ki (A1AR [4]; species h, agonist radioligand 40, n 3-4, read-out: affinity (KV nM) A1): 383 ± 75 nM; inhibition at 10 µM (A2AAR [5]): 23%; Ki (A3AR [6]): 11.1 ± 1.6 nM; Ki (A1AR [7]): 35.1 ± 5.5 nM; Emax (mA3AR): 95.7 ± 19.1% |
| CNC(=O)[C@@]12C[C@@H]1[C@@H](n1cnc3c(NCc4cccc(Cl)c4)nc(C#Cc4cccc(S(=O)(=O)O)c4)nc31)[C@H](O)[C@@H]2O [Compound 7] | 98.2 ± 6.7% | – | – | 15% | 1% | 11.3 ± 1.9 nM | inhibition at 10 µM (A1AR [4]): 16%; inhibition at 10 µM (A2AAR [5]): 7%; Ki (A3AR [6]): 1.9 ± 0.03 nM; Emax (mA3AR): 89.3 ± 7.1% |
| CNC(=O)[C@@]12C[C@@H]1[C@@H](n1cnc3c(NCCc4ccccc4)nc(C#Cc4ccccc4)nc31)[C@H](O)[C@@H]2O [Compound 17] | 105 ± 9.8% | – | – | 25% | 1% | 8.75 ± 2.12 nM | inhibition at 10 µM (A1AR [4]): 11%; inhibition at 10 µM (A2AAR [5]): 32%; Ki (A3AR [6]): 1.23 ± 0.57 nM; Emax (mA3AR): 115 ± 14.6% |
| O[C@@H]1[C@H](O)[C@@H]2C[C@@H]2[C@H]1n1cnc2c(NCc3cccc(Cl)c3)nc(C#Cc3ccc(-c4ccccc4)cc3)nc21 [Compound 13] | 3.5 ± 3.2% | (48% ± 4%) | (12% ± 7%) | – | 0% | 255 ± 77 nM | Ki (A1AR [7]): 1110 ± 220 nM |
| O[C@@H]1[C@H](O)[C@@H]2C[C@@H]2[C@H]1n1cnc2c(NCCc3ccccc3)nc(C#Cc3ccccc3)nc21 [Compound 14] | 4.1 ± 1.2% | (30% ± 8%) | (22% ± 5%) | – | – | – | – |
| CNC(=O)[C@@]12C[C@@H]1[C@@H](n1cnc3c(NCc4cccc(Cl)c4)nc(C#Cc4ccccc4)nc31)[C@H](O)[C@@H]2O [Compound 5] | – | (20% ± 3%) | – | 50% | 2% | 1.23 ± 0.14 nM | % efficacy, A3 (hA3AR; species h, percentage of maximal effect of 5′-N-ethylcarboxamidoadenosine 43, each at 10 μM, mean ± SEM): 101 ± 5.9% |
| OC1C(O)C(n2cnc3c(NCc4cccc(Cl)c4)nc(C#Cc4ccccc4)nc32)C2CC12 (stereo not shown) [Compound 11] | 13.8 ± 5.1% | – | – | – | – | – | Ki (A2AAR [2]): 680 ± 170 nM |
| CNc1nc(C#Cc2ccccc2)nc2c1ncn2[C@H]1[C@H](O)[C@H](O)[C@@H]2C[C@@H]21 [Compound 8] | 12.6 ± 4% | (18% ± 1%) | (18% ± 3%) | – | 8% | 1530 ± 240 nM | Ki (A1AR [7]): 3800 ± 780 nM |
| OC1C(O)C(n2cnc3c(NCc4cccc(Cl)c4)nc(C#Cc4cccc(Cl)c4)nc32)C2CC12 (stereo not shown) [Compound 12] | – | – | – | – | – | – | Ki (A2AAR [2]): 1800 ± 310 nM |
| CNC(=O)[C@H]1O[C@@H](n2cnc3c(NCc4cccc(I)c4)ncnc32)[C@H](O)[C@@H]1O [IB-MECA, N^6-(3-iodobenzyl)-adenosine-5′-N-methyluronamide] | – | – | – | – | – | – | development of morphine-induced antinociceptive tolerance (Male Sprague Dawley rats [10]; IB-MECA i.p. daily during 7 day s.c. morphine infusion, tail flick 30 min after acute morphine, day 3 and 6, n=2): blocked the development of morphine-induced antinociceptive tolerance; effect on baseline tail flick latency (Male Sprague Dawley rats [10]; given alone daily over 6 days to rats that received saline infusion): had no effect on baseline tail flick latency; potentiation of antinociceptive responses to acute morphine (Male Sprague Dawley rats [11]; IB-MECA 0.3 mg/kg i.p. 15 min before morphine 3 mg/kg i.p.): did not potentiate the antinociceptive responses to acute morphine; antinociception after acute morphine with IB-MECA pretreatment (Male Sprague Dawley rats [11]; IB-MECA 0.3 mg/kg i.p. 15 min before morphine 3 mg/kg i.p., at 30 min): 35+5 % antinociception; less naloxone-precipitated jumping vs morphine dependent mice receiving vehicle (Male Balb/c mice; 95% CI 1 to 17): 9 jumps/30 min; less episodes of hunched/prayer posture vs morphine dependent mice receiving vehicle (Male Balb/c mice; 95% CI 3 to 7, 30 minute observation): 5 episodes; less bouts of front paw shakes vs morphine dependent mice receiving vehicle (Male Balb/c mice; 95% CI 5 to 15): 10 bouts of front paw shakes/30 min; solubility in EtOH [12]: soluble |
| CCNc1nc(C#Cc2ccccc2Cl)nc2c1ncn2C1C(O)C(O)C2CC21 (stereo not shown) [Compound 10] | 7 ± 5.2% | (25% ± 11%) | (17% ± 6%) | – | – | – | Ki (A3AR [3]): 5.8 ± 2.08 nM |
| CCNc1nc(C#Cc2ccccc2)nc2c1ncn2[C@H]1[C@H](O)[C@H](O)[C@@H]2C[C@@H]21 [Compound 9] | 0.8 ± 5.2% | (36% ± 4%) | (42% ± 4%) | 49% | 49% | 1480 ± 170 nM | – |
